# Results from US20160081974A1, “COMPOSITION FOR PREVENTING OR TREATING EDEMA CONTAINING FLAVONOID COMPOUND” (Research & Business Foundation SUNGKYUNKWAN UNIVERSITY, priority 2014, published 2016).
# Columns and labels:
# [1] = system: aP2 mRNA; experiment: aP2 mRNA in lipedema tissue; assay type: in vivo, mouse; conditions: butein injected for 14 days
# Method: (§1) Lymph nodes were removed from a mouse leg by a similar method to the method described in Example 1 to induce lipedema in the experimental animal, and an increase in edema was confirmed about 3 days after the removal of the lymph nodes.
# (§2) In this example, to investigate a mechanism for inducing the reduction of lipedema, expression of an adipocyte-related marker that is easily found in lipedema was examined. An edema tissue was isolated after butein was injected into lipedema for 14 days, and mRNAs of adipocyte markers, PPAR-γ and aP2, isolated from total RNA were quantified, and the result is shown in FIG. 7. Referring to FIG. 7, it could be confirmed that butein reduced the expression of PPAR-γ and aP2. Therefore, it can be seen that the inhibition of adipocytes by the butein administration has an influence on lipedema reduction.
# [2] = system: lymphedema-induced mouse; experiment: Lymphedema reduction after subcutaneous injection for 5 days (leg images); assay type: in vivo; conditions: compared to control group
# Method: (§3) As mice, Outbred Mice ICR originating from Charles River Laboratories (Wilmington, Mass.) were used. 3 μl of 2% methylene blue as a staining dye for staining lymph nodes and lymphatic vessels was injected into the top of a right foot. After the injection, the right foot was massaged for about 3 minutes to allow a flow of the staining dye through lymphatic vessels to stain the lymphatic system. Zoletil50 (0.6 mg/kg) and Rompun (0.4 mg/kg), which are commercially provided by Bayer Korea, were administered as anesthetic drugs at the maximum content of 100 μl by intraperitoneal injection.
# Specifically, a mouse was anesthetized with the anesthetic drugs (Zoletil50, Rompun), and its chest was shaved to facilitate a surgical operation and suturing, and observation. A small amount (3 μl) of a 2% methylene blue solution was injected into the top of the right foot, and then the injected site was massaged for 3 minutes to allow the staining dye to spread well through the lymphatic vessels. To minimize inflammation which may be caused when lymph nodes in a groin region were excised and lymphatic vessels in a thigh were blocked, a minimum area of the right groin was incised open. Afterward, a superficial inguinal node and popliteal node, and a deep inguinal node, which were stained with methylene blue, were sequentially removed, and the stained lymphatic vessels in the right thigh were blocked using a soldering iron. Since 70 to 80% of the total lymphatic vessels were present in a subcutaneous region, the subcutaneous region in a suturing site was seared with the soldering iron to completely block the lymphatic system under the suturing site, and the right thigh was finally closed by suturing. About 3 days later, an increase in edema was confirmed.
# Butein (15 mg/kg/day) was administered into an animal in which lymphedema was induced by lymph excision in Example 1 by subcutaneous injection for 5 days, and the result is shown in FIG. 3. […]
# [3] = system: PPAR-γ mRNA; experiment: PPAR-γ mRNA in lipedema tissue; assay type: in vivo, mouse; conditions: butein injected for 14 days
# Method: as §1, §2
# [4] = system: aP2 mRNA; experiment: aP2 mRNA in lymphedema tissue by real time PCR; assay type: in vivo, mouse
# Method: as §3
# (§4) Specifically, a mouse was anesthetized with the anesthetic drugs (Zoletil50, Rompun), and its chest was shaved to facilitate a surgical operation and suturing, and observation. A small amount (3 μl) of a 2% methylene blue solution was injected into the top of the right foot, and then the injected site was massaged for 3 minutes to allow the staining dye to spread well through the lymphatic vessels. To minimize inflammation which may be caused when lymph nodes in a groin region were excised and lymphatic vessels in a thigh were blocked, a minimum area of the right groin was incised open. […]
# (§5) In this example, to investigate a mechanism for inducing reduction in lymphedema, expression of an adipocyte-related marker greatly found in edema was examined. […] An edema tissue was collected, and mRNAs of adipocyte markers such as PPAR-γ and aP2 that are greatly found in edema were quantitatively analyzed by real time PCR, the result of which is shown in FIG. […]
# In this example, to investigate a mechanism for inducing reduction in lymphedema, expression of an adipocyte-related marker easily found in edema was examined. […] An edema tissue was collected, and mRNAs of adipocyte markers such as PPAR-γ and aP2, which are greatly found in edema, were quantitatively analyzed by real time PCR, and the result is shown in FIG. […]
# [5] = system: PPAR-γ mRNA; experiment: PPAR-γ mRNA in lymphedema tissue by real time PCR; assay type: in vivo, mouse
# Method: as §3
# Specifically, a mouse was anesthetized with the anesthetic drugs (Zoletil50, Rompun), and its chest was shaved to facilitate a surgical operation and suturing, and observation. […]
# as §5, with “FIG. 2 (normal control: control group in which edema was not induced (n=3), edema+PBS: group into which PBS was injected after edema induction (n=4), edema+butein: group into which butein was injected after edema induction (15 mg/kg/day) (n=5)).” for “FIG.”
# [6] = system: lymphedema-induced mouse; experiment: Lymphedema size after daily injection into the edema site of lymphedema-induced mice (caliper, thigh cross-sectional area); assay type: in vivo; conditions: measured every day, compared to control group
# Method: as §3
# as §4, with “vessels.” for “vessels. To minimize inflammation which may be caused when lymph nodes in a groin region were excised and lymphatic vessels in a thigh were blocked, a minimum area of the right groin was incised open.”
# Each of PBS, hyaluronidase and butein was administered into an edema site of the mouse prepared in Example 1 at 15 mg per kg a day, and the size of edema was measured each day.
# The cross-sectional area of lymphedema was calculated from the width and length of the thigh and recorded, and thus a change in size of lymphedema during observation was found.
# Each of PBS, hyaluronidase and sulfuretin (15 mg/kg/day) was injected into an edema site of the mouse prepared in Example 1, and the size of edema was measured every day.
# FIG. 8 illustrates the inhibition of lymphedema by sulfuretin, and the size measurement was performed on a thigh area present between the knee and the trunk of the lymphedema-induced site of the experimental animal using a caliper. The cross-sectional area of lymphedema was calculated from the width and length of the thigh and recorded, and thus a change in the lymphedema size that occurs in observation was found.
# Each of PBS, hyaluronidase and isoflavone (100 mg/kg/day) was injected into an edema site of the mouse prepared in Example 1, and the size of edema was measured every day. […]
# [7] = system: lipedema-induced mouse; experiment: Lipedema size after injection into the edema site of lipedema-induced mice (caliper, thigh cross-sectional area); assay type: in vivo; conditions: 15 mg/kg/day injected into edema site, measured every day, versus untreated experimental group
# Method: as §1
# PBS (control) or butein (15 mg/kg/day) was injected into an edema site of the lipedema-induced mouse prepared in Example 5, and the edema size was measured every day.
# A thigh area present between the knee and the trunk of the lipedema-induced site of the experimental animal was measured using a caliper. The cross-sectional area of lipedema was calculated from the width and length of the thigh and recorded, and thus a change in size of lipedema during observation was found.
# [8] = 15 mg/kg/day subcutaneous injection for 5 days
# [9] = 15 mg/kg/day injected into edema site
Structure (SMILES),mRNA expression of aP2 in edema tissue [1],"size of lymphedema [2, 8]",mRNA expression of PPAR-γ in edema tissue [3],mRNA expression of aP2 in edema tissue ([4]; 15 mg/kg/day for 14 days),mRNA expression of PPAR-γ in edema tissue ([5]; 15 mg/kg/day for 14 days),"size of lymphedema [6, 9]",edema size (lipedema) [7],size of lymphedema ([2]; 100 mg/kg/day subcutaneous injection for 5 days),mRNA expression of aP2 in edema tissue ([4]; 100 mg/kg/day for 14 days),mRNA expression of PPAR-γ in edema tissue ([5]; 100 mg/kg/day for 14 days),size of lymphedema ([6]; 100 mg/kg/day injected into edema site)
O=C(/C=C/c1ccc(O)c(O)c1)c1ccc(O)cc1O [butein],reduced,significantly reduced,reduced,inhibits,inhibits,significantly reduced,more rapidly and greatly reduced,,,,
O=c1c(-c2ccccc2)coc2ccccc12 [isoflavone],,,,,,,,significantly reduced,inhibits,inhibits,significantly reduced
O=C1/C(=C/c2ccc(O)c(O)c2)Oc2cc(O)ccc21 [sulfuretin],,significantly reduced,,inhibits,,significantly reduced,,,,,
